Where two headings read alike, the source gives them in different places.

One may read the Ki as a measure of affinity in units of concentration, obtained from inhibition or displacement.

In experiment [1] the test system is mouse FL5.12 cells transfected with Bcl-XL. Kind of experiment: FL5.12 cellular assay (cell viability, CellTiter-Glo).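 Further: each EC50 determination derived from duplicate measurements.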 It is filed as cell-based. The settings on record: FL5.12 cells transfected with Bcl-XL, IL-3-depleted, 3% FBS assay media, 24 hours, CellTiter-Glo, read-out: FL5.12 Bcl-xL, - IL3, EC 50.
Experiment [2] deals with GST-Bcl-xL (Homo sapiens, UniProt Q07817). The following applies: read-out: TR-FRET binding Bcl-xL Ki. For orientation: TR-FRET usually uses a lanthanide donor and a delayed reading to cut background.
Sequence of GST-Bcl-xL (Q07817 whole entry): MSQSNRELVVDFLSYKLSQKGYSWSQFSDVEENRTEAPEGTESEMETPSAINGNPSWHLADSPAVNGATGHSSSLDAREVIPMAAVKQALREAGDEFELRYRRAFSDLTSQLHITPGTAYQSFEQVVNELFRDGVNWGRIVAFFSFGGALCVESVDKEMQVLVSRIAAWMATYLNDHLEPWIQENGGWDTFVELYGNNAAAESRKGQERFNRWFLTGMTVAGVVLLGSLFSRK

For the compound `O=C(Nc1nc2ccccc2s1)c1cccc2c1CN(c1ccc(-c3cnn(Cc4ccccc4O)c3)c(C(=O)O)n1)CC2` [Example 36, 6-[8-(1,3-benzothiazol-2-ylcarbamoyl)-3,4-dihydroisoquinolin-2(1H)-yl]-3-[1-(2-hydroxybenzyl)-1H-pyrazol-4-yl]pyridine-2-carboxylic acid], the EC50 in experiment [1] (Mus musculus) is greater than 1000 nM. For the same compound, in experiment [2], the Ki came to 8 nM.

Turning to `Cc1ccc(S(=O)(=O)n2ccc(-c3ccc(N4CCc5cccc(C(=O)Nc6nc7ccccc7s6)c5C4)nc3C(=O)O)c2)cc1` [Example 126, 6-[8-(1,3-benzothiazol-2-ylcarbamoyl)-3,4-dihydroisoquinolin-2(1H)-yl]-3-{1-[(4-methylphenyl)sulfonyl]-1H-pyrrol-3-yl}pyridine-2-carboxylic acid], the EC50 in experiment [1] (Mus musculus) is greater than 1000 nM. In addition, the inhibition constant (Ki) in experiment [2] was found to be 47 nM.

Regarding `Cc1c(-c2ccc(N3CCc4cccc(C(=O)Nc5nc6ccccc6s5)c4C3)nc2C(=O)O)cnn1CC1(OCCO)CCCCC1` [Example 169, 6-[8-(1,3-benzothiazol-2-ylcarbamoyl)-3,4-dihydroisoquinolin-2(1H)-yl]-3-(1-{[1-(2-hydroxyethoxy)cyclohexyl]methyl}-5-methyl-1H-pyrazol-4-yl)pyridine-2-carboxylic acid], the EC50 in experiment [1] (Mus musculus) came out at 10 nM. The Ki in experiment [2] is less than 0.1 nM.

For `Cc1nn(Cc2ccccc2)c(C)c1-c1ccc(N2CCc3cccc(C(=O)Nc4nc5ccccc5s4)c3C2)nc1C(=O)O` [Example 12, 6-[8-(1,3-benzothiazol-2-ylcarbamoyl)-3,4-dihydroisoquinolin-2(1H)-yl]-3-(1-benzyl-3,5-dimethyl-1H-pyrazol-4-yl)pyridine-2-carboxylic acid], in experiment [1] (Mus musculus), the EC50 stood at 51 nM. Also, the Ki in experiment [2] stood at 8 nM.

In the case of `Cc1c(-c2ccc(N3CCc4cccc(C(=O)Nc5nc6ccccc6s5)c4C3)nc2C(=O)O)cnn1Cc1ccccc1OCC(C)(CO)CO` [Example 98, 6-[8-(1,3-benzothiazol-2-ylcarbamoyl)-3,4-dihydroisoquinolin-2(1H)-yl]-3-(1-{2-[3-hydroxy-2-(hydroxymethyl)-2-methylpropoxy]benzyl}-5-methyl-1H-pyrazol-4-yl)pyridine-2-carboxylic acid], the EC50 in experiment [1] (Mus musculus) was 421 nM. Moreover, the Ki in experiment [2] stood at 2 nM.

Turning to `Cc1c(OC2CCCC(C)(C)C2)cccc1-c1ccc(N2CCc3cccc(C(=O)Nc4nc5ccccc5s4)c3C2)nc1C(=O)O` (centres unmarked) [Example 121, 6-[8-(1,3-benzothiazol-2-ylcarbamoyl)-3,4-dihydroisoquinolin-2(1H)-yl]-3-{3-[(3,3-dimethylcyclohexyl)oxy]-2-methylphenyl}pyridine-2-carboxylic acid], in experiment [1] (Mus musculus), the EC50 is 82 nM. Also, in experiment [2], the Ki stood at 0.1 nM.

In the case of `O=C(Nc1nc2ccccc2s1)c1cccc2c1CN(c1ccc(-c3cnn(Cc4ccc(F)c([N+](=O)[O-])c4)c3)c(C(=O)O)n1)CC2` [Example 45, 6-[8-(1,3-benzothiazol-2-ylcarbamoyl)-3,4-dihydroisoquinolin-2(1H)-yl]-3-[1-(4-fluoro-3-nitrobenzyl)-1H-pyrazol-4-yl]pyridine-2-carboxylic acid], the EC50 in experiment [1] (Mus musculus) was greater than 1000 nM. In addition, in experiment [2], the Ki was found to be 19 nM.

Consider `Cc1nn(Cc2ccccc2)cc1-c1ccc(N2CCc3cccc(C(=O)Nc4nc5ccccc5s4)c3C2)nc1C(=O)O` [Example 19, 6-[8-(1,3-benzothiazol-2-ylcarbamoyl)-3,4-dihydroisoquinolin-2(1H)-yl]-3-(1-benzyl-3-methyl-1H-pyrazol-4-yl)pyridine-2-carboxylic acid], for which the EC50 in experiment [1] (Mus musculus) was determined as 398 nM. In addition, in experiment [2], the Ki came out at 28 nM.

With `Cc1c(-c2ccc(N3CCc4cccc(C(=O)Nc5nc6ccccc6s5)c4C3)nc2C(=O)O)cc(C#N)n1CC1(N(C)C)CCCCC1` [Example 176, 6-[8-(1,3-benzothiazol-2-ylcarbamoyl)-3,4-dihydroisoquinolin-2(1H)-yl]-3-(5-cyano-1-{[1-(dimethylamino)cyclohexyl]methyl}-2-methyl-1H-pyrrol-3-yl)pyridine-2-carboxylic acid], in experiment [1] (Mus musculus), the EC50 is 10 nM. For the same compound, in experiment [2], the Ki was less than 0.1 nM.

Regarding `Cc1c(-c2ccc(N3CCc4cccc(C(=O)Nc5nc6ccccc6s5)c4C3)nc2C(=O)O)cnn1CC1(OCC(O)CO)CCCCCC1` (centres unmarked) [Example 175, 6-[8-(1,3-benzothiazol-2-ylcarbamoyl)-3,4-dihydroisoquinolin-2(1H)-yl]-3-(1-{[1-(2,3-dihydroxypropoxy)cycloheptyl]methyl}-5-methyl-1H-pyrazol-4-yl)pyridine-2-carboxylic acid], the EC50 in experiment [1] (Mus musculus) came out at 33 nM. The Ki in experiment [2] is less than 0.1 nM.

As to `Cc1c(-c2ccc(N3CCc4cccc(C(=O)Nc5nc6ccccc6s5)c4C3)nc2C(=O)O)cnn1CC1(OCCCN2CCOCC2)CCCCCC1` [Example 155, 6-[8-(1,3-benzothiazol-2-ylcarbamoyl)-3,4-dihydroisoquinolin-2(1H)-yl]-3-[5-methyl-1-({1-[3-(morpholin-4-yl)propoxy]cycloheptyl}methyl)-1H-pyrazol-4-yl]pyridine-2-carboxylic acid], the EC50 in experiment [1] (Mus musculus) worked out at 7 nM. The Ki in experiment [2] was less than 0.1 nM.

`CCOC(=O)c1cc(-c2ccc(N3CCc4cccc(C(=O)Nc5nc6ccccc6s5)c4C3)nc2C(=O)O)c(C)n1Cc1ccccc1` [Example 123, 6-[8-(1,3-benzothiazol-2-ylcarbamoyl)-3,4-dihydroisoquinolin-2(1H)-yl]-3-[1-benzyl-5-(ethoxycarbonyl)-2-methyl-1H-pyrrol-3-yl]pyridine-2-carboxylic acid]: the EC50 in experiment [1] (Mus musculus) amounted to 16 nM. Further, in experiment [2], the inhibition constant (Ki) was less than 0.1 nM.

`Cc1c(-c2ccc(N3CCc4cccc(C(=O)Nc5nc6ccccc6s5)c4C3)nc2C(=O)O)cnn1Cc1ccccc1OCCN1CCOCC1` [Example 79, 6-[8-(1,3-benzothiazol-2-ylcarbamoyl)-3,4-dihydroisoquinolin-2(1H)-yl]-3-(5-methyl-1-{2-[2-(morpholin-4-yl)ethoxy]benzyl}-1H-pyrazol-4-yl)pyridine-2-carboxylic acid]: the EC50 in experiment [1] (Mus musculus) worked out at 19 nM. The Ki in experiment [2] amounted to 0.5 nM.

For the compound `Cc1c(OCC2CCCCC2)cccc1-c1ccc(N2CCc3cccc(C(=O)Nc4nc5ccccc5s4)c3C2)nc1C(=O)O` [Example 112, 6-[8-(1,3-benzothiazol-2-ylcarbamoyl)-3,4-dihydroisoquinolin-2(1H)-yl]-3-[3-(cyclohexylmethoxy)-2-methylphenyl]pyridine-2-carboxylic acid], in experiment [1] (Mus musculus), the EC50 was 523 nM. For the same compound, in experiment [2], the Ki came to 0.7 nM.

`COCC(COC1(Cn2ncc(-c3ccc(N4CCc5cccc(C(=O)Nc6nc7ccccc7s6)c5C4)nc3C(=O)O)c2C)CCCCCC1)OC` (centres unmarked) [Example 170, 6-[8-(1,3-benzothiazol-2-ylcarbamoyl)-3,4-dihydroisoquinolin-2(1H)-yl]-3-(1-{[1-(2,3-dimethoxypropoxy)cycloheptyl]methyl}-5-methyl-1H-pyrazol-4-yl)pyridine-2-carboxylic acid]: the EC50 in experiment [1] (Mus musculus) stood at 0.5 nM. In addition, in experiment [2], the Ki was less than 0.1 nM.

For `CC1(C)CCC(Cn2cc(-c3ccc(N4CCc5cccc(C(=O)Nc6nc7ccccc7s6)c5C4)nc3C(=O)O)cn2)=C(c2ccc(Cl)cc2)C1` [Example 83, 6-[8-(1,3-benzothiazol-2-ylcarbamoyl)-3,4-dihydroisoquinolin-2(1H)-yl]-3-(1-{[2-(4-chlorophenyl)-4,4-dimethylcyclohex-1-en-1-yl]methyl}-1H-pyrazol-4-yl)pyridine-2-carboxylic acid], the EC50 in experiment [1] (Mus musculus) is greater than 1000 nM. The inhibitory constant (Ki) in experiment [2] amounted to 0.5 nM.

Turning to `Cc1c(-c2ccc(N3CCc4cccc(C(=O)Nc5nc6ccccc6s5)c4C3)nc2C(=O)O)cnn1CC1(N2CCOCC2)CCCCC1` [Example 160, 6-[8-(1,3-benzothiazol-2-ylcarbamoyl)-3,4-dihydroisoquinolin-2(1H)-yl]-3-(5-methyl-1-{[1-(morpholin-4-yl)cyclohexyl]methyl}-1H-pyrazol-4-yl)pyridine-2-carboxylic acid], the EC50 in experiment [1] (Mus musculus) is 14 nM. The inhibition constant Ki in experiment [2] was less than 0.1 nM.

Take `O=C(Nc1nc2ccccc2s1)c1cccc2c1CN(c1ccc(-c3cccc(Oc4ccc([N+](=O)[O-])cc4)c3)c(C(=O)O)n1)CC2` [Example 104, 6-[8-(1,3-benzothiazol-2-ylcarbamoyl)-3,4-dihydroisoquinolin-2(1H)-yl]-3-[3-(4-nitrophenoxy)phenyl]pyridine-2-carboxylic acid]: in experiment [1] (Mus musculus), the EC50 was greater than 1000 nM. Also, the Ki in experiment [2] was 14 nM.

Consider `COC1(Cn2ncc(-c3ccc(N4CCc5cccc(C(=O)Nc6nc7ccccc7s6)c5C4)nc3C(=O)O)c2C)CCCCC1` [Example 165, 6-[8-(1,3-benzothiazol-2-ylcarbamoyl)-3,4-dihydroisoquinolin-2(1H)-yl]-3-{1-[(1-methoxycyclohexyl)methyl]-5-methyl-1H-pyrazol-4-yl}pyridine-2-carboxylic acid], for which the EC50 in experiment [1] (Mus musculus) came to 9 nM. The Ki in experiment [2] is less than 0.1 nM.

In the case of `CN(C)CC#Cc1ccccc1Cn1cc(-c2ccc(N3CCc4cccc(C(=O)Nc5nc6ccccc6s5)c4C3)nc2C(=O)O)cn1` [Example 51, 6-[8-(1,3-benzothiazol-2-ylcarbamoyl)-3,4-dihydroisoquinolin-2(1H)-yl]-3-(1-{2-[3-(dimethylamino)prop-1-yn-1-yl]benzyl}-1H-pyrazol-4-yl)pyridine-2-carboxylic acid], the EC50 in experiment [1] (Mus musculus) was greater than 1000 nM. In experiment [2], the Ki was determined as 122 nM.

In the case of `Cc1cc(OC2CCCCC2)ccc1-c1ccc(N2CCc3cccc(C(=O)Nc4nc5ccccc5s4)c3C2)nc1C(=O)O` [Example 113, 6-[8-(1,3-benzothiazol-2-ylcarbamoyl)-3,4-dihydroisoquinolin-2(1H)-yl]-3-[4-(cyclohexyloxy)-2-methylphenyl]pyridine-2-carboxylic acid], in experiment [1] (Mus musculus), the EC50 was greater than 1000 nM. Further, the Ki in experiment [2] came out at 19 nM.

Take `O=C(Nc1nc2ccccc2s1)c1cccc2c1CN(c1ccc(-c3cnn(Cc4ccccn4)c3)c(C(=O)O)n1)CC2` [Example 26, 6-[8-(1,3-benzothiazol-2-ylcarbamoyl)-3,4-dihydroisoquinolin-2(1H)-yl]-3-[1-(pyridin-2-ylmethyl)-1H-pyrazol-4-yl]pyridine-2-carboxylic acid]: in experiment [1], the EC50 is greater than 1000 nM. The Ki in experiment [2] was determined as 167 nM.

For the origin of these results see patent publication EP2768830B1, “APOPTOSIS-INDUCING AGENTS FOR THE TREATMENT OF CANCER AND IMMUNE AND AUTOIMMUNE DISEASES” (AbbVie Inc., priority 2011, dated 2013).
